According to patent US10383336B2, “Solutions employing herbicides and buffered amine oxides to kill weeds and related methods” (priority 2015, dated 2019):

How the values were obtained:
[1] = tested on: Grass (mixed types); assay: Field trial of formulation components, kill rate 1 year after application (TABLE 2, Jun. 14, 2005, near Warren Pa.); format: in vivo; details: no herbicide; single component at % weight: Ethylene Glycol 0.07, 5 Mol Borax 0.044, Boric Acid 0.037, Barlox 12 0.305
Procedure: (§1) On Jun. 14, 2005, further trials were conducted near Warren Pa., USA to evaluate the contribution of certain formulation components to herbicide performance from the Jun. 2, 2004 Buffered Amine Oxide system. The same field trial methods were used. The control was distilled water.
(§2) The two herbicides which were tested were 2,4-D and Glyphosate. They were used in concentrations of 50:1 and 200:1. The vegetations tested were raspberry and grass. The components of the various elements employed in the buffered amine oxide formula are expressed in weight percent of the total buffered amine oxide formula. […] The first three components were tested at 200:1 strength with the Ethylene Glycol used alone, the Ethylene Glycol used in combination with 5 Mol Borax and Ethylene Glycol, 5 Mol Borax and Boric Acid used in combination. None of these killed the weeds.
(§3) Where a “0” appears in a block in TABLE 2, this means there were no kills. Where a block is blank, this means that no measurement was taken.

[2] = tested on: Raspberry; assay: as above; format: in vivo; details: no herbicide; single component at % weight: Ethylene Glycol 0.07, 5 Mol Borax 0.044, Boric Acid 0.037, Barlox 12 0.305
Procedure: as §1, §2, §3

Row | SMILES | Kill Rate % 1 Year After Application, Grass [1] | Kill Rate % 1 Year After Application, Raspberry [2]
1 | O.O.O.O.O.[Na+].[Na+].[O-]B1OB2OB([O-])OB(O1)O2 [5 Mol Borax] | 0% | 0%
2 | OCCO [Ethylene Glycol] | 0% | 0%
3 | OB(O)O [Boric Acid] | 0% | 0%
